Experiment [1] deals with BRCA1 mRNA expression in MDA-MB-231 cells. Put plainly: qRT-PCR assay: inhibition of BRCA1 mRNA expression in MDA-MB-231 cells. Format: cell-based. As to conditions: Homo sapiens, 24 h exposure, normalised to GAPDH, read-out: RTqPCR-MDA-MB-231 IC50 [mol/l] BRCA1 (median). The protocol:
Tissue cultured human MDA-MB-231 human breast cancer cells were plated in 500 microL per well at 200,000 cells/well in a 24 well microtiter plate. After 24 h, the cells were exposed continuously for 24 h to test substances (substances were added with Tecan HP D300 Dispenser). RNA was prepared using Qiagen RNeasy MiniKit (#74106), RNA was quantified using a NanoDrop Equipment, and 600 nano gamms of RNA was converted to cDNA using a SuperScript VILO kit (Thermofisher #11755050) followed by qPCR amplification. BRCA1 and ATR gene expression was measured by RT-qPCR and normalised to GAPDH housekeeping gene expression. qPCR primer sets have been purchased from Thermo Fisher Scientific/Applied Biosystems: BRCA1, #Hs 01556193; ATR, #Hs 00992123; GAPDH, #Hs 03929097.
For orientation: Quantitative PCR measures a nucleic acid by following its amplification.

In experiment [2] the test system is MDA-MB-231 human breast cancer cells. Put plainly: Proliferation assay MDA-MB-231 (crystal violet). Format: cell-based. As to conditions: 96 h, MDA-MB-231 cells, 4 days, read-out: Prolif-MDA MB231 IC50-[mol/l] (median). The protocol: Human tumour cells were originally obtained from the American Type Culture Collection (ATCC), or from the Deutsche Sammlung von Mikroorganismen und Zellkulturen (DSMZ, German Collection of Microorganisms and Cell Cultures). Cultivated tumour cells (CAL-120, human breast adenocarcinoma cells, DSMZ ACC-459; MDA-MB-231, human breast cancer cells, ATCC HTB-26) were plated at a density of 4,000 cells/well in a 96-well multititer plate in 200 microL of their respective growth medium supplemented 10% fetal calf serum. After 24 hours, the cells of one plate (zero-point plate) were stained with crystal violet (see below), while the medium of the other plates was supplemented with the test substances in various concentrations (0 micromol/L, as well as in the range of 0.01-10 micromol/L; the final concentration of the solvent dimethyl sulfoxide was adjusted to 0.1%) using a Tecan HP D300 Digital Dispenser. The cells were incubated for 4 days in the presence of test substances. Cell proliferation was determined by staining the cells with crystal violet: the cells were fixed by adding 20 microL/measuring point of an 11% glutaric aldehyde solution for 15 minutes at room temperature. After three washing cycles of the fixed cells with water, the plates were dried at room temperature. The cells were stained by adding 100 microL/measuring point of a 0.1% crystal violet solution (pH 3.0). After three washing cycles of the stained cells with water, the plates were dried at room temperature. The dye was dissolved by adding 100 microL/measuring point of a 10% acetic acid solution. The extinction was determined by photometry at a wavelength of 595 nm. The change of cell number, in percent, was calculated by normalization of the measured values to the extinction values of the zero-point plate (=0%) and the extinction of the untreated (0 μM) cells (=100%). The IC50 values (inhibitory concentration at 50% of maximal effect) were determined by means of a 4 parameter fit.

Experiment [3] relates to CYCLIN K. Put plainly: CYCLIN K nuclear protein level: immunofluorescence/high content analysis in CAL-120 cells. Format: cell-based, human. The settings on record: 24 h, nuclear CCNK staining, read-out: CYCLIN K degradation IF, DC50-[mol/l] (median). The protocol: In the context of the present invention, the term “DC50 Cyclin K” refers to the DC50 values obtained according to the assay described in this section (7) herein below, i.e. the DC50 values for the degradation of Cyclin K.
CAL-120 human breast cancer cells (DSMZ ACC 459) are seeded in 1536-well microtiter plates (800 cells per well) containing 50 nanoL of compounds in Dose-Response. Control wells received DMSO or Reference Example 1. Plates are then incubated for 24 h at 37° C. in an humidified incubator and fixed with 4% PFA for 10 min. Then immunofluorescence (IF) against CYCLIN K (ThermoFisher Scientific CCNK Antibody #PA5-85020, rabbit, 1:200 dilution) is performed using standard IF protocols. Cells are then stained with Hoechst 33342 (Life Technologies, H-1399, 0.1 microg/ml) and imaged on an automated confocal microscopy system (e.g. Perkin Elmer Opera Phenix). Nuclear and cytoplasmic intensity as well as the nuclear/cytoplasmic intensity ratio is determined by automated image analysis using custom generated scripts (MetaXpress). Data is then transferred to Genedata Screener software, normalized to DMSO and control and DC50 values (degrading concentration to achieve 50% reduction of nuclear CCNK staining intensity relative to controls) are reported.

pIC50: −log10 of the molar value.

For the molecule `CN1CCN(c2nc(NCc3nc4c(F)c(F)ccc4[nH]3)c3ncc(C(F)(F)F)n3n2)CC1` [Example 28, N-[(4,5-difluoro-1H-benzimidazol-2-yl)methyl]-2-(4-methylpiperazin-1-yl)-7-(trifluoromethyl)imidazo[2,1-f][1,2,4]triazin-4-amine], the pIC50 in experiment [1] is 9.62; in experiment [2], 8.55. Moreover, the DC50 in experiment [3] was 0.363 nM.
In the same order, the values of `COc1cccc2[nH]c(CNc3nc(N4CCNCC4)nn4c(Br)cnc34)nc12` [Example 15, 7-bromo-N-[(4-methoxy-1H-benzimidazol-2-yl)methyl]-2-(piperazin-1-yl)imidazo[2,1-f][1,2,4]triazin-4-amine] are 8.63, 8.25 and 1.41 nM.
On to `Brc1cnc2c(NCc3nc4ccccc4[nH]3)nc(N3CCOCC3)nn12` [Example 1, N-[(1H-benzimidazol-2-yl)methyl]-7-bromo-2-(morpholin-4-yl)imidazo[2,1-f][1,2,4]triazin-4-amine], for which the pIC50 in experiment [1] was 8.00; in experiment [2] it was 7.38. In experiment [3], the DC50 was 0.876 nM.
As for `COc1cccc2[nH]c(CNc3nc(N4C[C@@H](C)N[C@@H](C)C4)nn4c(Br)cnc34)nc12` [Example 14, 7-bromo-2-[rel-(3R,5S)-3,5-dimethylpiperazin-1-yl]-N-[(4-methoxy-1H-benzimidazol-2-yl)methyl]imidazo[2,1-f][1,2,4]triazin-4-amine], the pIC50 in experiment [1] was 8.83; in experiment [2], 8.41. In experiment [3], the DC50 was determined as 0.225 nM.
On to `CN1CCN(c2nc(NCc3nc4cc(F)ccc4[nH]3)c3ncc(Br)n3n2)CC1` [Example 21, 7-bromo-N-[(5-fluoro-1H-benzimidazol-2-yl)methyl]-2-(4-methylpiperazin-1-yl)imidazo[2,1-f][1,2,4]triazin-4-amine], for which the results for the pIC50 in experiment [1] and in experiment [2] were 8.51 and 7.71, respectively. Further, in experiment [3], the DC50 turned out to be 0.227 nM.
In the same order, the values of `C[C@@H]1CN(c2nc(NCc3nc4ccccc4[nH]3)c3ncc(Br)n3n2)C[C@H](C)N1` [Example 9, N-[(1H-benzimidazol-2-yl)methyl]-7-bromo-2-[rel-(3R,5S)-3,5-dimethylpiperazin-1-yl]imidazo[2,1-f][1,2,4]triazin-4-amine] are 8.45, 8.02 and 0.111 nM.
With `C[C@@H]1CN(c2nc(NCc3nc4ccccc4[nH]3)c3ncc(C(F)(F)F)n3n2)C[C@H](C)N1.O=CO` [Example 24, N-[(1H-benzimidazol-2-yl)methyl]-2-[rel-(3R,5S)-3,5-dimethylpiperazin-1-yl]-7-(trifluoromethyl)imidazo[2,1-f][1,2,4]triazin-4-amine Formate (1/1)], the pIC50 in experiment [1] was 8.96; in experiment [2] it was 8.82. Also, the DC50 in experiment [3] came out at 0.0613 nM.
`COc1cccc2[nH]c(CNc3nc(N4CCN(C)CC4)nn4c(Br)cnc34)nc12.O=CO` [Example 16, 7-bromo-N-[(4-methoxy-1H-benzimidazol-2-yl)methyl]-2-(4-methylpiperazin-1-yl)imidazo[2,1-f][1,2,4]triazin-4-amine Formate (1/1)]: the pIC50 is 8.25 in experiment [1] and 7.88 in experiment [2]. The DC50 in experiment [3] amounted to 0.954 nM.
In the case of `Fc1cccc2[nH]c(CNc3nc(N4CCNCC4)nn4c(Br)cnc34)nc12` [Example 22, 7-bromo-N-[(4-fluoro-1H-benzimidazol-2-yl)methyl]-2-(piperazin-1-yl)imidazo[2,1-f][1,2,4]triazin-4-amine], the pIC50 in experiment [1] is 9.05; in experiment [2], 8.36. In addition, the DC50 in experiment [3] came out at 0.589 nM.
Consider `Fc1ccc2[nH]c(CNc3nc(N4CCOCC4)nn4c(C(F)(F)F)cnc34)nc2c1F` [Example 27, N-[(4,5-difluoro-1H-benzimidazol-2-yl)methyl]-2-(morpholin-4-yl)-7-(trifluoromethyl)imidazo[2,1-f][1,2,4]triazin-4-amine], for which the pIC50 was 8.98 in experiment [1] and 8.72 in experiment [2]. For the same molecule, the DC50 in experiment [3] amounted to 3.45 nM.
Consider `CN1CCN(c2nc(NCc3nc4ccccc4[nH]3)c3ncc(Br)n3n2)CC1` [Example 6, N-[(1H-benzimidazol-2-yl)methyl]-7-bromo-2-(4-methylpiperazin-1-yl)imidazo[2,1-f][1,2,4]triazin-4-amine], for which the pIC50 is 7.16 in experiment [1] and 7.15 in experiment [2]. In experiment [3], the DC50 is 2.31 nM.

These data come from US20230106032A1, “IMIDAZOTRIAZINES ACTING ON CANCER VIA INHIBITION OF CDK12” (Bayer Aktiengesellschaft, priority 2020, published 2023).
